Source: PubChem BioAssay AID588650 (The Scripps Research Institute Molecular Screening Center, 2011)

What follows are compounds tested against Epidermal growth factor receptor (Homo sapiens) (UniProt P00533) (assay: phospho-EGFR protein level reduction, late-stage follow-up, counter-screen for KLF5 inhibitor project, HCT116 cells, chemiluminescent western blot, powder samples (AID 588650)). Conditions: 24 h, at 10 µM, stronger effect = higher value.
Sequence of Epidermal growth factor receptor (Homo sapiens) (P00533 whole entry, looked up): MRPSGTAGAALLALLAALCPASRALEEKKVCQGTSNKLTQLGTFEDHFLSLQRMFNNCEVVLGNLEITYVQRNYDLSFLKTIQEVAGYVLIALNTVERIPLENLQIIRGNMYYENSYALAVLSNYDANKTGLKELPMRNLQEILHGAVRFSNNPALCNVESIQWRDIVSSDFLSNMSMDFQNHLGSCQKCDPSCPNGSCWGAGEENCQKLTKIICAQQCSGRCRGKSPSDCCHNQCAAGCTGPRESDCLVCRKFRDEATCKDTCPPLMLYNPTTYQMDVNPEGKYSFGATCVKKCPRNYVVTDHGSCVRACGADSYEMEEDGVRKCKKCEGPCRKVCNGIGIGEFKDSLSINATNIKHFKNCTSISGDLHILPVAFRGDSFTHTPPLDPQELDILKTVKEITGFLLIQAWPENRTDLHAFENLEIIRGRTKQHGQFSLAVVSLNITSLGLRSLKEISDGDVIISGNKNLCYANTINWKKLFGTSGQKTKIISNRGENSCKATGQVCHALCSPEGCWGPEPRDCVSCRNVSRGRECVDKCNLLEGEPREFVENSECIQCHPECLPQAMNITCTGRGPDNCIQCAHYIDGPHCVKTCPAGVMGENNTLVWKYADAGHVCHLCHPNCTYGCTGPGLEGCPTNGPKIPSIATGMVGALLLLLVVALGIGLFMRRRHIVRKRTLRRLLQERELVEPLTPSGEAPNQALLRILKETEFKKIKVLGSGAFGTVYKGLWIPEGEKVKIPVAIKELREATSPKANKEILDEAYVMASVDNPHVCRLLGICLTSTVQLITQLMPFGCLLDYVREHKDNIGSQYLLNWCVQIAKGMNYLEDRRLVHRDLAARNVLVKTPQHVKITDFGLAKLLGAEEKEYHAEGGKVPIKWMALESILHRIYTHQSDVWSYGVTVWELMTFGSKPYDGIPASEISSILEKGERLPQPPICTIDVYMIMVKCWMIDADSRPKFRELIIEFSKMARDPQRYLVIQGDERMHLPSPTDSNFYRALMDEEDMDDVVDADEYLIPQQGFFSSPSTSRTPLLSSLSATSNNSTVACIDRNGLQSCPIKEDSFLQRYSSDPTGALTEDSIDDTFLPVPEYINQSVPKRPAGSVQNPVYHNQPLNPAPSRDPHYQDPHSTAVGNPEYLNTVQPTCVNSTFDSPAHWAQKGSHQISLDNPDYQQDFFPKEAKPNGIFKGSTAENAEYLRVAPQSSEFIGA
In the case of CN(C(=O)CNC(=O)/C=C/c1cccc(Cl)c1)C1CCS(=O)(=O)CC1, the inhibition was -254%. CN(C(=O)CNC(=O)/C=C/c1cccc(Cl)c1)C1CCS(=O)(=O)C1 (stereo not drawn) was tested, and the inhibition was -53.2%. With CN(C(=O)COC(=O)/C=C/c1cccc([N+](=O)[O-])c1)C1CCS(=O)(=O)C1 (stereo not drawn) the inhibition was -64.9%.
